From paper PMC10982093, “Identifying and characterising promising small molecule inhibitors of kinesin spindle protein using ligand-based virtual screening, molecular docking, molecular dynamics and MM‑GBSA calculations” (Journal of Computer-Aided Molecular Design, 2024)

Columns and labels:
Eg5 protein = target: Eg5 protein; set-up: method as in PMID 35251692; details: read-out: Ki against Eg5 protein; cited from earlier work
Eg5 ATPase = target: T1, Eg5 ATPase (Homo sapiens, UniProt P52732); test: Microtubule-activated Eg5 ATPase inhibition assay (Kinesin ELISA kit BK060); type: biochemical; details: for inhibition at 10 µM: mean of 3 replicates
T1 construct: purchased Cytoskeleton, Inc BK060
T1 sequence (P52732 1-1056): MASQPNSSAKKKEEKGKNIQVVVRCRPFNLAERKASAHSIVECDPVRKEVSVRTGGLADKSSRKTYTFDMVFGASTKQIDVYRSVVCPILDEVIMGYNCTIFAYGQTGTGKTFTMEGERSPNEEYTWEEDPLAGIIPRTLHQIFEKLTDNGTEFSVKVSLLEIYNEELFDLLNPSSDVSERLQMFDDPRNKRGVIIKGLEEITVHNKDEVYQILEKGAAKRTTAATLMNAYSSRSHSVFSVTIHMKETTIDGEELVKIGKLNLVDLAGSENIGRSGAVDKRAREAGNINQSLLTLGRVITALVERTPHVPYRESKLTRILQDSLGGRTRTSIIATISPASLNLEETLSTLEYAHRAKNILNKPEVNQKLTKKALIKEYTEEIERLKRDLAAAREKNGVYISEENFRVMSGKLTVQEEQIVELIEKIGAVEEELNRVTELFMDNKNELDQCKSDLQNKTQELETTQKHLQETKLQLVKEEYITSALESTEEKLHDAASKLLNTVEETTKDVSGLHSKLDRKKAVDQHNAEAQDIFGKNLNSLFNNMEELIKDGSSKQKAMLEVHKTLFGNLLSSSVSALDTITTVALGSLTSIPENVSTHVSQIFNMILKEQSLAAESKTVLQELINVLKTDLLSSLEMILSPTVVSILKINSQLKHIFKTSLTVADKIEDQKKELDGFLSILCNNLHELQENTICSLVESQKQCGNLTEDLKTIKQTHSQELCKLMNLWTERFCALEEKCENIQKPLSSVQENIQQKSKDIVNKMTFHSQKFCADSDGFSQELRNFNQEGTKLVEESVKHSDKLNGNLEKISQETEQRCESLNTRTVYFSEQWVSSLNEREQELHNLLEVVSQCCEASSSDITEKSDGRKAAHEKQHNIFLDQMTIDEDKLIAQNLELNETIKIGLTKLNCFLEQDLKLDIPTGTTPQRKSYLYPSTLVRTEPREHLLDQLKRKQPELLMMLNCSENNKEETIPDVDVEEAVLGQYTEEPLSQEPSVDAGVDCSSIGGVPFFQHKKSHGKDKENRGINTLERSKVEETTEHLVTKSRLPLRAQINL
Procedure: Microtubule (MT)-activated enzymatic Eg5-ATPase activity were measured in order to evaluate the inhibitory activity of the selected compounds at […]. The MT—ATPase activity was analysed using Kinesin ELISA kit (BK060) (Cytoskeleton, Inc) and Monastrol was used as a control. The procedures were applied according to the manufacturer’s instructions. The IC50 of compound 5 which were required for inhibiting 50% of Eg5 ATPase activity was measured using ELISA kit (BK060) (Cytoskeleton, Inc, Denver, CO) according to the manufacturer’s instructions.
The Eg5 ATPase activity of the six hits at 10 µM was investigated in comparison to Monastrol (10 µM), as it acted as a positive control compound. […] Similarly compounds 1, 3 and 4 caused 40, 35 and 30% inhibition activity respectively.

Hela cells = test: Immunofluorescence assay, inhibition of mitotic spindle formation; type: cell-based; details: 10 µM, 24 h, tubulin immunofluorescence
Procedure: […] Monastrol was used as a positive control, while 0.1% DMSO was used as a negative control. The cells were rinsed with PBS, fixed with 3.7% paraformaldehyde, and permeabilized with 0.1% Triton X-100. The cells were blocked with 1% BSA in PBS for 1 h prior to incubation with anti-β-tubulin mouse monoclonal antibody (#86,298, Cell Signaling, San Francisco, CA, USA) overnight at 4 °C. The cells were washed with PBS for 1 h in the dark, and then incubated with Alexa Fluor® 488 secondary antibodies (Abcam).
Further investigation of compound 5 was performed, which consisted of an immunofluorescence assay that was used to analyse the mechanism of compound 5 on the organisation of the microtubules into mitotic spindles during divisions of the cells.

Compound	inhibition at 10 µM (Eg5 ATPase) [%]	other results
NC(=O)Nc1ccc(-c2ccc(C(F)(F)F)cc2)cc1F [GSK-2]		Ki (Eg5 protein): 8.8 nM
CS(=O)(=O)c1ccc(CNc2nc3cc(C(=O)O)ccc3n2Cc2ccccc2C(F)(F)F)cc1 [Compound 6, 1-(2-(trifluoromethyl)benzyl)-2-(4-(methylsulfonyl)benzylamino)-1H-benzo[d]imidazole-5-carboxylic acid]	~25	
CCOC(=O)C1=C(C)NC(=S)NC1c1cccc(O)c1 (stereo not drawn) [Monastrol, reference compound]	60	Mitotic spindle morphology (Hela cells): monopolar spindle profiles
COc1cc2nc(-c3cc(-c4ccccc4Cl)nc4ccccc34)[nH]c2cc1OC [Compound 3, 2-(2-chlorophenyl)-4-(5,6-dimethoxy-1H-benzo[d]imidazol-2-yl)quinoline]	35	
COc1ccc(CNc2nc3cc(C(=O)O)ccc3n2Cc2ccccc2C(F)(F)F)cc1 [Compound 1, 1-(2-(trifluoromethyl)benzyl)-2-(4-methoxybenzylamino)-1H-benzo[d]imidazole-5-carboxylic acid]	40	
Cn1c(=O)[nH]c(=O)c2c1nc(NCCCn1ccnc1)n2Cc1ccc2ccccc2c1 [Compound 5, 8-(3-(1H-imidazol-1-yl)propylamino)-3-methyl-7-((naphthalen-3-yl)methyl)-1H-purine-2,6(3H,7H)-dione]	50	IC50 (Eg5 ATPase; read-out: IC50 against Eg5 ATPase): 2370 ± 150 nM; Mitotic spindle morphology (Hela cells): monopolar spindle profiles
O=C1CCc2cc(-c3ccc(C(F)(F)F)cc3)ccc2N1 [GSK-1]		Ki (Eg5 protein): 1.8 nM
COc1ccc(C(=O)N2c3ccc(OC(=O)c4ccco4)cc3C(C)=CC2(C)C)cc1 [Compound 2, 1-(4-methoxybenzoyl)-2,2,4-trimethyl-1,2-dihydroquinolin-6-yl furan-2-carboxylate]	~25	
Cc1ccc(O)c(C(=O)c2cnc3c(c2)c(-c2ccc(F)cc2)c(C#N)c(=O)n3C)c1 [Compound 4, 4-(4-fluorophenyl)-6-(2-hydroxy-5-methylbenzoyl)-1-methyl-2-oxo-1,8-naphthyridine-3-carbonitrile]	30	
